Test results taken from ChEMBL document CHEMBL1201862, “PubChem BioAssay data set” (2004).
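Assay format: 96-well plates, 48-hour exposure. GI50: concentration for 50% inhibition of growth.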 Activity calls are given as the source filed them. Cut-off read from the data, not from the text of the source: active = GI50 up to about 1.1 µM and inactive = higher.

Columns and labels:
Assay in all cases: NCI tumour cell line growth inhibition, 48 h
OVCAR-8 = tested on: OVCAR-8
LOX IMVI = tested on: LOX IMVI
SF-539 = tested on: SF-539
K562 = tested on: K562
SF-268 = tested on: SF-268
EKVX = tested on: EKVX
CCRF-CEM = tested on: CCRF-CEM
NCI-H522 = tested on: NCI-H522
A549 = tested on: A549
M19-MEL = tested on: M19-MEL
SNB-78 = tested on: SNB-78
CAKI-1 = tested on: CAKI-1
DMS-273 = tested on: DMS-273
OVCAR-5 = tested on: OVCAR-5
SNB-75 = tested on: SNB-75
DMS-114 = tested on: DMS-114
OVCAR-3 = tested on: OVCAR-3
HOP-62 = tested on: HOP-62
NCI-H460 = tested on: NCI-H460
SF-295 = tested on: SF-295
UACC-257 = tested on: UACC-257
MOLT-4 = tested on: MOLT-4
SNB-19 = tested on: SNB-19
HCC 2998 = tested on: HCC 2998
SN12C = tested on: SN12C
SW-620 = tested on: SW-620
HCT-15 = tested on: HCT-15
UO-31 = tested on: UO-31
Malme-3M = tested on: Malme-3M
SK-MEL-28 = tested on: SK-MEL-28
U-251 = tested on: U-251
SK-MEL-2 = tested on: SK-MEL-2
XF498 = tested on: XF498
NCI-H23 = tested on: NCI-H23
TK-10 = tested on: TK-10
ACHN = tested on: ACHN
NCI-H226 = tested on: NCI-H226
M14 = tested on: M14
OVCAR-4 = tested on: OVCAR-4
HCT-116 = tested on: HCT-116
DLD-1 = tested on: DLD-1
HT-29 = tested on: HT-29
COLO 205 = tested on: COLO 205
SK-MEL-5 = tested on: SK-MEL-5
786-0 = tested on: 786-0
HOP-92 = tested on: HOP-92
SK-OV-3 = tested on: SK-OV-3
LXFL 529 = tested on: LXFL 529
IGROV-1 = tested on: IGROV-1
KM-20L2 = tested on: KM-20L2
UACC-62 = tested on: UACC-62
RPMI-8226 = tested on: RPMI-8226
A498 = tested on: A498
SR = tested on: SR
KM12 = tested on: KM12
HL-60 = tested on: HL-60
RXF 393 = tested on: RXF 393

In the case of `COc1cccc(/C=C2\C(=O)N(C(=O)c3ccc(NC(C)=O)cc3)N=C2C)c1`, the GI50 (OVCAR-8) is reported as > 100 µM (inactive), the GI50 (LOX IMVI) is reported as > 100 µM (inactive) and the GI50 (SF-539) is reported as > 100 µM (inactive). For the same compound, the GI50 (K562) was > 100 µM (inactive), the GI50 (SF-268) was > 100 µM (inactive) and the GI50 (EKVX) was > 100 µM (inactive). For the same compound, the GI50 (CCRF-CEM) was > 100 µM (inactive), the GI50 (NCI-H522) was > 100 µM (inactive) and the GI50 (A549) was > 100 µM (inactive). For the same compound, the GI50 (M19-MEL) was > 100 µM (inactive), the GI50 (SNB-78) was > 100 µM (inactive) and the GI50 (CAKI-1) was > 100 µM (inactive). For the same compound, the GI50 (DMS-273) was > 100 µM (inactive), the GI50 (OVCAR-5) was > 100 µM (inactive) and the GI50 (SNB-75) was > 100 µM (inactive). For the same compound, the GI50 (DMS-114) was > 100 µM (inactive), the GI50 (OVCAR-3) was > 100 µM (inactive) and the GI50 (HOP-62) was > 100 µM (inactive). The GI50 (NCI-H460) was > 100 µM (inactive), the GI50 (SF-295) was > 100 µM (inactive) and the GI50 (UACC-257) was > 100 µM (inactive). For the same compound, the GI50 (MOLT-4) was > 100 µM (inactive), the GI50 (SNB-19) was > 100 µM (inactive) and the GI50 (HCC 2998) was > 100 µM (inactive). For the same compound, the GI50 (SN12C) was > 100 µM (inactive), the GI50 (SW-620) was > 100 µM (inactive) and the GI50 (HCT-15) was greater than 100 µM. The GI50 (UO-31) was > 100 µM (inactive), the GI50 (Malme-3M) was > 100 µM (inactive) and the GI50 (SK-MEL-28) was > 100 µM (inactive). The GI50 (U-251) was > 100 µM (inactive), the GI50 (SK-MEL-2) was > 100 µM (inactive) and the GI50 (XF498) was > 100 µM (inactive). The GI50 (NCI-H23) was > 100 µM (inactive), the GI50 (TK-10) was > 100 µM (inactive) and the GI50 (ACHN) was > 100 µM (inactive). For the same compound, the GI50 (NCI-H226) was > 100 µM (inactive), the GI50 (M14) was > 100 µM (inactive) and the GI50 (OVCAR-4) was > 100 µM (inactive). The GI50 (HCT-116) was > 100 µM (inactive), the GI50 (DLD-1) was > 100 µM (inactive) and the GI50 (HT-29) was > 100 µM (inactive). For the same compound, the GI50 (COLO 205) was > 100 µM (inactive), the GI50 (SK-MEL-5) was 56.1 µM (inactive) and the GI50 (786-0) was > 100 µM (inactive).

With `CCOC(=O)C(Cc1ccc2ccccc2c1)(Cc1ccc2ccccc2c1)C(C)=O` the GI50 (LOX IMVI) was > 10 µM (inactive), the GI50 (K562) was 1.67 µM (inactive) and the GI50 (CCRF-CEM) was 5.13 µM (inactive). For the same compound, the GI50 (A549) was 3.78 µM (inactive), the GI50 (M19-MEL) was > 10 µM (inactive) and the GI50 (SNB-78) was > 10 µM (inactive). For the same compound, the GI50 (HOP-92) was 5.41 µM (inactive), the GI50 (SK-OV-3) was > 10 µM (inactive) and the GI50 (DMS-273) was 5.38 µM (inactive). The GI50 (HOP-62) was 7.53 µM (inactive), the GI50 (NCI-H460) was 7.31 µM (inactive) and the GI50 (LXFL 529) was 4.47 µM (inactive). For the same compound, the GI50 (IGROV-1) was > 10 µM (inactive), the GI50 (MOLT-4) was 0.635 µM (active) and the GI50 (HCC 2998) was 3.02 µM (inactive). The GI50 (SN12C) was > 10 µM (inactive), the GI50 (SW-620) was > 10 µM (inactive) and the GI50 (HCT-15) was 8.47 µM. The GI50 (Malme-3M) was 3.28 µM (inactive), the GI50 (U-251) was > 10 µM (inactive) and the GI50 (KM-20L2) was > 10 µM (inactive). For the same compound, the GI50 (XF498) was 3.39 µM (inactive), the GI50 (UACC-62) was > 10 µM (inactive) and the GI50 (ACHN) was > 10 µM (inactive). For the same compound, the GI50 (M14) was > 10 µM (inactive), the GI50 (OVCAR-4) was 8.67 µM (inactive) and the GI50 (DLD-1) was 2.69 µM (inactive). For the same compound, the GI50 (RPMI-8226) was 1.86 µM (inactive), the GI50 (COLO 205) was > 10 µM (inactive) and the GI50 (786-0) was 4.92 µM (inactive).

For `CCOc1ccccc1NC(=O)CCc1nnc2s/c(=C\CCc3ccccc3)c(=O)n12`, the GI50 (OVCAR-8) was > 100 µM (inactive), the GI50 (LOX IMVI) was > 100 µM (inactive) and the GI50 (SF-539) was > 100 µM (inactive). For the same compound, the GI50 (K562) was > 100 µM (inactive), the GI50 (SF-268) was > 100 µM (inactive) and the GI50 (CCRF-CEM) was > 100 µM (inactive). The GI50 (NCI-H522) was > 100 µM (inactive), the GI50 (A549) was > 100 µM (inactive) and the GI50 (M19-MEL) was > 100 µM (inactive). For the same compound, the GI50 (SNB-78) was > 100 µM (inactive), the GI50 (CAKI-1) was > 100 µM (inactive) and the GI50 (HOP-92) was > 100 µM (inactive). For the same compound, the GI50 (SK-OV-3) was > 100 µM (inactive), the GI50 (DMS-273) was > 100 µM (inactive) and the GI50 (OVCAR-5) was > 100 µM (inactive). The GI50 (SNB-75) was > 100 µM (inactive), the GI50 (DMS-114) was > 100 µM (inactive) and the GI50 (OVCAR-3) was > 100 µM (inactive). For the same compound, the GI50 (HOP-62) was > 100 µM (inactive), the GI50 (NCI-H460) was > 100 µM (inactive) and the GI50 (SF-295) was > 100 µM (inactive). For the same compound, the GI50 (LXFL 529) was > 100 µM (inactive), the GI50 (UACC-257) was > 100 µM (inactive) and the GI50 (IGROV-1) was > 100 µM (inactive). For the same compound, the GI50 (MOLT-4) was > 100 µM (inactive), the GI50 (SNB-19) was > 100 µM (inactive) and the GI50 (HCC 2998) was > 100 µM (inactive). The GI50 (SN12C) was > 100 µM (inactive), the GI50 (SW-620) was > 100 µM (inactive) and the GI50 (HCT-15) was greater than 100 µM. For the same compound, the GI50 (UO-31) was > 100 µM (inactive), the GI50 (Malme-3M) was > 100 µM (inactive) and the GI50 (SK-MEL-28) was > 100 µM (inactive). The GI50 (U-251) was > 100 µM (inactive), the GI50 (KM-20L2) was > 100 µM (inactive) and the GI50 (A498) was > 100 µM (inactive). For the same compound, the GI50 (SK-MEL-2) was > 100 µM (inactive), the GI50 (XF498) was > 100 µM (inactive) and the GI50 (NCI-H23) was > 100 µM (inactive). For the same compound, the GI50 (TK-10) was > 100 µM (inactive), the GI50 (UACC-62) was > 100 µM (inactive) and the GI50 (ACHN) was > 100 µM (inactive). The GI50 (NCI-H226) was > 100 µM (inactive), the GI50 (SR) was > 100 µM (inactive) and the GI50 (M14) was > 100 µM (inactive). The GI50 (OVCAR-4) was > 100 µM (inactive), the GI50 (KM12) was > 100 µM (inactive) and the GI50 (HCT-116) was > 100 µM (inactive). The GI50 (HL-60) was > 100 µM (inactive), the GI50 (DLD-1) was > 100 µM (inactive) and the GI50 (HT-29) was > 100 µM (inactive). The GI50 (RPMI-8226) was > 100 µM (inactive), the GI50 (COLO 205) was > 100 µM (inactive) and the GI50 (SK-MEL-5) was > 100 µM (inactive). For the same compound, the GI50 (RXF 393) was > 100 µM (inactive) and the GI50 (786-0) was > 100 µM (inactive).
